Here are results for one compound from article PMC4336141, “Repurposing Auranofin as a Lead Candidate for Treatment of Lymphatic Filariasis and Onchocerciasis” (PLoS Neglected Tropical Diseases, 2015).

One data set has as its target glutathione reductase. Details: method as in PMID 9685351. As to conditions: higher IC50; cited from earlier work.
The next data set deals with O. volvulus L3. Nature of the data set: Onchocerca volvulus L3 molting inhibition in vitro. In kind it is cell-based. As to conditions: O. volvulus L3, Day 6, inhibition of molting. Here is the method:
L3 stage larvae previously collected and cryopreserved in Cameroon were rapidly thawed in a 37°C water bath and washed in incomplete media comprised of a 1:1 ratio of Medium NCTC-109 and IMDM + GlutaMax-I containing 1X glutamine, penicillin, and streptomycin (all from Gibco by Life Technologies, Grand Island, NY). The number of worms was adjusted to about 10 worms per 50 μL in complete medium containing 20% heat inactivated FCS. Worms were distributed into the wells of a 96-well plate containing 50 μL of 1.5 × 10^5 normal human PBMCs. 100 μL of 2X auranofin (final concentrations of 30 μM, 10 μM, 3 μM, 1 μM and 0.3 μM) were added to each well for a final volume of 200 μL. Each concentration was tested in triplicate. Controls included 0.05% DMSO in complete medium and complete medium only with neither DMSO nor compound added. The 96-well plates were then incubated at 37°C in a 5% CO2 incubator for 6 days, then molting was assessed using an inverted microscope. Molting was determined in each well by counting the presence of fourth-stage larvae (L4) and empty casts of the L3. The percent inhibition of molting was calculated based on the number of treated larvae that were able to molt in comparison to the number of control larvae that had successfully molted. Prism 4.0 for Windows was used to calculate IC50s.

The test system of a further data set is adult B. pahangi. The data set is described as follows: Adult Brugia pahangi worm motility assay (Worminator) in vitro. Format: cell-based. The following applies: for IC50: B. pahangi, Adult, Day 3, motility. Here is the method: Adult female and male Brugia (B. malayi and B. pahangi) were shipped from TRS Labs Inc., Athens, GA and assayed using methods described by Marcellino et al. (2012). Individual females were placed in each well of a 24-well plate with media (RPMI-1640 with 25 mM HEPES, 2.0 g/L NaHCO3, 5% heat inactivated FBS, and 1X Antibiotic/Antimycotic solution). Excess media was removed from plates using a Biomek FxP, leaving 500 μL of media per well. Initial screening of a library of FDA-approved compounds, compiled by the Small Molecule Discovery Center at the University of California San Francisco, was conducted at 10 μM per compound, and 1% DMSO was used as a negative control. All drugs including auranofin (Enzo Life Sciences, Farmingdale, NY) were dissolved in DMSO (Sigma-Aldrich, St. Louis, MO) and 10 mM stock solutions were stored at -20°C. Four worms were used as replicates for each concentration and worm plates were kept in a 37°C, 5% CO2 incubator for four days.
To determine the effect of a compound on worm motility, individual worm movements were counted as the number of pixels displaced per second by each worm in each well using the Worminator. Each plate of worms was video recorded for approximately 60 seconds, and mean movement units (MMUs) were determined for individual worms. Percent inhibition of motility was calculated by dividing the MMUs of the treated worms by the control average MMUs, subtracting the value from 1.0, flooring the values to zero and multiplying by 100%. Videos were recorded for 4 days, including the first day of the assay (Day 0). IC50 determinations were conducted at 10 μM, 3 μM, 1 μM, 0.3 μM, 0.1 μM and 0.03 μM, with 1% DMSO used as a control. IC50 assays were repeated at the same concentrations and at six point, three-fold dilutions from 1 μM to 0.003 μM or 3 μM to […] to ensure that activity was consistent between assays. Prism 4.0 was used to calculate IC50 values using a non-linear regression curve fit. The means of all IC50s with R^2 values greater than or equal to 0.7 are reported.

Data set [1] relates to cysteine protease cathepsin B. Details: method as in PMID 16789749. As to conditions: cited from earlier work.
The next data set relates to O. ochengi microfilariae. Nature of the data set: Onchocerca ochengi microfilariae motility in vitro. In kind it is cell-based. The following applies: Day 5. The method, then: O. ochengi microfilariae were obtained from the umbilical skin of infected cattle and cultured on confluent monkey kidney epithelial cells for drug testing as previously described.
Microfilariae (10–15 per well) were cultured in 96-well culture plates in duplicate under the same conditions and drug concentrations as were used for the adult O. ochengi, except that 10 μg/mL ivermectin was used as a positive control. Microfilariae viability was visually scored based on motility reduction using the same scale described above for adult male O. ochengi. Scores were recorded every 24 hours after the addition of drugs for 5 days using an inverted microscope.

On the set-up of data set [2]: method as in PMID 6417628. As to conditions: patients with rheumatoid arthritis treated for an average of 6 months; cited from earlier work.
The next data set concerns adult female O. ochengi. The data set is described as follows: Transmission electron microscopy of treated adult female O. ochengi. In kind it is cell-based, Onchocerca ochengi. As to conditions: 10 μM, 7 days, vs untreated. Here is the method:
Adult female B. pahangi worms were incubated with either 1 μM, 0.3 μM, or 0.1 μM auranofin, 10 μM flubendazole (as a positive control), or 1% DMSO overnight, then cut into 3 segments separating the anterior, middle and posterior sections. The middle sections were further cut into 1 mm sized pieces in fixative (2.5% glutaraldehyde and 2% paraformaldehyde in 0.1 M sodium cacodylate buffer, pH 7.3–7.4) and stored at 4°C. Middle sections were subsequently treated with 1% tannic acid for 1 hour, followed by three buffer washes before post fixation staining with 2% osmium tetroxide for 1 hour. The samples were washed three times in buffer before dehydration in an ethanol series. Worm sections were then infiltrated with propylene oxide, embedded in epon 812 resin and polymerized in a vacuum oven at 60°C overnight. Ultrathin sections were cut using an RMC MTX ultramicrotome with a Diatome diamond knife followed by post staining of the grids with saturated ethanolic uranyl acetate and Reynolds lead citrate. Samples were imaged on a FEI Tecnai 12 spirit TEM operated at 80 kV. A similar procedure was performed on adult female O. ochengi worm masses that were cultured for 7 days with 10 μM auranofin before fixation of cut pieces of the adult female mass. Untreated adult female masses cultured for 7 days and fixed by the same procedure served as the control.

By IC50 is commonly meant the concentration at which inhibition is half-maximal. On to `CC[PH](CC)(CC)[Au][S][C@@H]1O[C@H](COC(C)=O)[C@@H](OC(C)=O)[C@H](OC(C)=O)[C@H]1OC(C)=O` [auranofin, 2,3,4,6-tetra-O-acetyl-1-thio-beta-D-glucopyranosato-S (triethylphosphine) gold], for which the “IC50 relative to TrxR isolated from human placenta” value at glutathione reductase is given as “about 1000 fold”. The IC50 with O. volvulus L3 is 300 nM; in the data set on adult B. pahangi (Female), 500 nM; in the data set with adult B. pahangi (Male), 100 nM; in data set [1] it was ~250000 nM; in the data set on O. ochengi microfilariae it was 3000 nM. This compound also displayed an inhibition of motility with adult B. pahangi (female B. pahangi, 3 μM, within 18 hours of incubation) of 97%. In data set [2], the side effects result is given as “few side effects, with the most common side effect being diarrhea”. Besides, in the data set on adult female O. ochengi, the “ultrastructure (TEM) of adult female O. ochengi” value is reported as “Numerous vacuoles with inclusion bodies were observed in the muscle tissue below the hypodermal chord”.
